Experimental data: patent US20220257782A1, “PEPTIDE THERAPEUTICS FOR AUTOIMMUNE DISEASES AND INFLAMMATORY DISEASES” (GENESEN CO., LTD., priority 2019, published 2022)
Ends that are not written are not given here.

Legend:
[1] = biological target: T1, TLR4 (Mus musculus, UniProt Q9QUK6); test: Cytokine secretion (ELISA) in LPS-stimulated RAW264.7 cells; assay type: cell-based; settings: FIG. 2E
T1 construct: endogenous in cells; host or cells: RAW264.7
T1 sequence (Q9QUK6 26-835): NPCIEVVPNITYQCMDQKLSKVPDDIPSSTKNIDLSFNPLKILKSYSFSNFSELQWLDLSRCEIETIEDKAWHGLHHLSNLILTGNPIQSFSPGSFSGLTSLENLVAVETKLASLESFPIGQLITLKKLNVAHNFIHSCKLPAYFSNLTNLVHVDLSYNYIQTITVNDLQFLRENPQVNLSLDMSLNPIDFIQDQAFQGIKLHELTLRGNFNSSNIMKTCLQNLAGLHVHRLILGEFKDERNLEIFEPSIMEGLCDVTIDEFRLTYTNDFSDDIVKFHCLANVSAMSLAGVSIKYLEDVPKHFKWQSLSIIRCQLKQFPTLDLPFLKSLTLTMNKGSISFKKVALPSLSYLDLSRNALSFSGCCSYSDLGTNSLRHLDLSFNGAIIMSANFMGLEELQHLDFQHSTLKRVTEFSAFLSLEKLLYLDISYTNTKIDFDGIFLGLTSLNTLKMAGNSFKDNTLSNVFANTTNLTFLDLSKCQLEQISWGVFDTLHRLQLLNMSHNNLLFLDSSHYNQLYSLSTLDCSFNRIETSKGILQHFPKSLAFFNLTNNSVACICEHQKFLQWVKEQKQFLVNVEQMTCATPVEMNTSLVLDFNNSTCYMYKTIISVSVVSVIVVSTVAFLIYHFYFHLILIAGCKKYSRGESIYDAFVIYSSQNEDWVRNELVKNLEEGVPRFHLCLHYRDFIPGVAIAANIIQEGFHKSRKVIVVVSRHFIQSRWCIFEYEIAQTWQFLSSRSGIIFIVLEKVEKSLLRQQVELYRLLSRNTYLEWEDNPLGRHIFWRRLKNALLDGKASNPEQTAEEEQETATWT
T1 sequence (Q9JHF9 19-160 partner): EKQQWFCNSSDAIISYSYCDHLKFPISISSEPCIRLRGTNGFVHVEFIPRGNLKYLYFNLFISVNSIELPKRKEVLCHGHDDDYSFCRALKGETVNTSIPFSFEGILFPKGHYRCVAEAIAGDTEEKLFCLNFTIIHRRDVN
Description: THP-1-derived macrophages and RAW264.7 cells were dispensed into 96-well plates (BD Biosciences) at a density of 2×10^5 cells/well and cultured overnight. After 24 hours of treatment, IL-6 secretion was analyzed using Mouse IL-6 ELISA MAX™ Deluxe (BioLegend, San Diego, Calif., USA), and TNF-α production was evaluated using the Mouse TNF alpha ELISA Ready-SET-GO!® kit (eBioscience, San Diego, Calif., USA). Then, the plate was analyzed at each wavelength using a microplate spectrophotometer system (Molecular Devices).

[2] = tested on: RAW264.7 cells; test: Cell viability assay (MTT/MTS), RAW264.7 cells; assay type: cell-based, mouse; settings: concentration of 50 μM or below; FIG. 2B
Description: (§1) HEK-BLUE™ hTLR4 cells were dispensed at a density of 5×10^4 cells/well, and RAW264.7 cells and THP-1 cells were dispensed thereinto at a density of 2×10^5 cells/well. All cells were cultured overnight in 96-well plates (BD Biosciences, San Jose, Calif., USA). Cell viability was determined using colorimetric […] (MTT) assay (Sigma-Aldrich) and/or MTS (3-(4,5-dimethylthiazol-2-yl)-5-(3-carboxymethoxyphenyl)-2-(4-sulfophenyl)-2H-tetrazolium) (Promega Madison, Wis., USA), which was performed as described previously (Kwon, H. K. et al., Toxicological sciences: an official journal of the Society of Toxicology 148, 204-219 (2015)).

[3] = tested on: THP-1 cells; test: Cell viability assay (MTT/MTS), THP-1 cells; assay type: cell-based, human; settings: FIG. 2C
Description: as §1

[4] = tested on: HEK-Blue™ hTLR4 cells; test: Cell viability assay (MTT/MTS), HEK-BLUE hTLR4 cells; assay type: cell-based, human; settings: FIG. 2A
Description: as §1

[5] = tested on: IMQ-induced psoriasis in C57BL/6 mice; test: Imiquimod-induced psoriasis mouse model; assay type: in vivo; settings: FIG. 5D
Description: 6-7 week old C57BL/6 mice were purchased from Orient Bio Inc. (Seongnam, Korea). The mice were housed under specific pathogen-free conditions and provided ad libitum with a standard laboratory diet (STD). All the animal experiments were approved by the Institutional Animal Care and Use Committee (IACUC) of Ajou University (Approval No. 2017-0002). 62.5 mg of ALDARA™ cream (including 5% IMQ; Aldara, 3M Pharmaceutical LLC.) was applied for five consecutive days, resulting in symptoms similar to psoriasis. The normal group was not treated with IMQ but only injected with PBS. […] Factors such as erythema, scaling, wrinkles, and thickening were independently scored from 0 to 4: 0, none; 1, a little; 2, middle; 3, significant; 4, very prominent. Erythema, scaling, and thickness were scored under the close supervision of an experienced researcher. […]
A skin sample obtained from the dorsal lesion of each mouse was fixed in 4% paraformaldehyde solution, embedded in paraffin, and sectioned at a thickness of 7 μm on a glass slide. […] The thickness of the skin was measured using a Leica DMi8 fluorescence microscope which utilizes a Leica LAS X Hardware Configurator. IMQ-mediated inflammation in the skin was evaluated using a mouse-specific HRC/DAB Detection IHC Kit (Abcam, Cat. No. AB64259) with primary antibodies recognizing CD68, CD4, and IL-17. […]

PFVYLI (cell penetrating peptide)
inhibitory effect on LPS-stimulated RAW 264.7 cells [1]: did not show any inhibitory effect

RQIKIWFQNRRMKWKKPWCKYQMLQALT [MIP2]
cytotoxic effect in RAW264.7 cells [2]: absence of a cytotoxic effect
toxicity in THP-1 cells [3]: does not show toxicity
toxicity in HEK-Blue hTLR4 cells [4]: do not show toxicity
body weight [5]: no significant difference compared to PBS- and MTX-treated mice
